According to PMC5564600 (Oncotarget, 2017):
Several values for one entry are separate records, joined by “and”; a condition that tells them apart may be missing. Equal values may be shown once. Read-outs that look alike come from different tables or passages of the source.

Assays:
Assay in all cases: biochemical
Type in all cases: binding
[1] = target: T1, panel of 442 kinases (Homo sapiens, UniProt Q92918); details: kinase HPK1; 1 µM; read-out: % of control at 1 µM
T1 construct: purchased Ambit Biosciences (scanMAXX KINOMEscan)
T1 sequence (Q92918 whole entry): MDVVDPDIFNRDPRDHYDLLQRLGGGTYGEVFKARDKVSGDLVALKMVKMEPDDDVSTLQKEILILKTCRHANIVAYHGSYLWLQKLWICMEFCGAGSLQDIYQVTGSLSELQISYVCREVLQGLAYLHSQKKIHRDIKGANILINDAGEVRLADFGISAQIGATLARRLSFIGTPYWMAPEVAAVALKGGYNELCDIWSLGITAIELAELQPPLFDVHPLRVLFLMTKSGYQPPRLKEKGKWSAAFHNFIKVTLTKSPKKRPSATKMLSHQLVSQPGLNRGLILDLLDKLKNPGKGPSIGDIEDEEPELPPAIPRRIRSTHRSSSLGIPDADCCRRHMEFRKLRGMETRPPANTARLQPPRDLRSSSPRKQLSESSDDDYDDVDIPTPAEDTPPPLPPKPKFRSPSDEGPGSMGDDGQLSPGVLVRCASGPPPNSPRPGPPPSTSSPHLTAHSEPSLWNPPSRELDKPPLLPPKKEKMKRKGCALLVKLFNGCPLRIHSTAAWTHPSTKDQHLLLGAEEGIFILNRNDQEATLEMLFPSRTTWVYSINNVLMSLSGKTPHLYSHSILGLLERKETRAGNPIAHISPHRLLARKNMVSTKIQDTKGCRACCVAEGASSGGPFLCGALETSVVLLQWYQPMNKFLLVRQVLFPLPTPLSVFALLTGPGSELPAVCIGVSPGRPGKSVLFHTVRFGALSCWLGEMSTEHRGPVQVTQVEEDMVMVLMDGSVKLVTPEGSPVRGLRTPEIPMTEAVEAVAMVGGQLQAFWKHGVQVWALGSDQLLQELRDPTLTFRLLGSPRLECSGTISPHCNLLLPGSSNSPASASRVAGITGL

[2] = target: T2, panel of 442 kinases (Homo sapiens, UniProt Q7KZI7); details: kinase MARK2; 1 µM; read-out: % of control at 1 µM
T2 construct: purchased Ambit Biosciences (scanMAXX KINOMEscan)
T2 sequence (Q7KZI7 whole entry): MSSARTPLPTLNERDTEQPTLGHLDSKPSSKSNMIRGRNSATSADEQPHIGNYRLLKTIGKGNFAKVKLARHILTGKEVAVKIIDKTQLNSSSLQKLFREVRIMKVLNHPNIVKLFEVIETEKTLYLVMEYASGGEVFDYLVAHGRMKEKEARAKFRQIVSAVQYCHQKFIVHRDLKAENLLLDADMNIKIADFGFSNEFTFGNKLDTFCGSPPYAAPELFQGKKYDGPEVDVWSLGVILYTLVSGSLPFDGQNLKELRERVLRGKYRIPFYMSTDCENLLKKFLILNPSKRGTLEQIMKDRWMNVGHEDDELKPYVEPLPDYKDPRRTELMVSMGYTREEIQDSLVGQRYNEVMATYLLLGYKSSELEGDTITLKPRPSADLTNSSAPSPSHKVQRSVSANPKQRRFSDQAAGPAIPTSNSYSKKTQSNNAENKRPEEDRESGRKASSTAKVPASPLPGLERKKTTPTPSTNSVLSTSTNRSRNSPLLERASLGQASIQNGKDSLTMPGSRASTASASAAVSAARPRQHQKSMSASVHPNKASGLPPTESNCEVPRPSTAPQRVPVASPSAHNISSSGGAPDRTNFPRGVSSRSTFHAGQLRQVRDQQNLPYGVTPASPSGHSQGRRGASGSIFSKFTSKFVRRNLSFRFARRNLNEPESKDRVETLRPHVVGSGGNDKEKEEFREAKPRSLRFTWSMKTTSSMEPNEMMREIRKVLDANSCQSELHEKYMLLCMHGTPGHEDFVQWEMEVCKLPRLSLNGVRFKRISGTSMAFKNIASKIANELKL

[3] = target: T3, panel of 442 kinases (Homo sapiens, UniProt P08581, M1250T); details: kinase MET(M1250T); 1 µM; read-out: % of control at 1 µM
T3 construct: purchased Ambit Biosciences (scanMAXX KINOMEscan)

[4] = target: T4, panel of 442 kinases (Homo sapiens, UniProt P53350); details: kinase PLK1; 1 µM; read-out: PLK1 (% of control at 1 µM)
T4 construct: purchased Ambit Biosciences (scanMAXX KINOMEscan)
T4 sequence (P53350 whole entry): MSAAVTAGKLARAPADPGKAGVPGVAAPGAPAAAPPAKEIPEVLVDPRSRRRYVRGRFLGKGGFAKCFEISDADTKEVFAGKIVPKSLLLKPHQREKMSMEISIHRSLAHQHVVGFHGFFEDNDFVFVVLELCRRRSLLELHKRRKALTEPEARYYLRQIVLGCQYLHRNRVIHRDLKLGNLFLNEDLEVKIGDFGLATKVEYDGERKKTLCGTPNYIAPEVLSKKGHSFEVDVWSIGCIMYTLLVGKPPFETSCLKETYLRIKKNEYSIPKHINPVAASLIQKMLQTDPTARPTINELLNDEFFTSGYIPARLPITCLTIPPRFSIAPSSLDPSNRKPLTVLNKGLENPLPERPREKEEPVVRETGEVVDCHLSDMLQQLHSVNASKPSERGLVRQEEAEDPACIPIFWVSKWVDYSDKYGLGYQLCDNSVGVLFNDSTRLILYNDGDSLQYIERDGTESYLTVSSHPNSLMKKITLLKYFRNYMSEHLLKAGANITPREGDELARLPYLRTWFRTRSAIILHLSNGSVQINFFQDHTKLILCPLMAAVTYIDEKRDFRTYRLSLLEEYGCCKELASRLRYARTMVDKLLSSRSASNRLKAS

[5] = target: T5, panel of 442 kinases (Homo sapiens, UniProt Q9P286); details: kinase PAK7; 1 µM; read-out: % of control at 1 µM
T5 construct: purchased Ambit Biosciences (scanMAXX KINOMEscan)
T5 sequence (Q9P286 whole entry): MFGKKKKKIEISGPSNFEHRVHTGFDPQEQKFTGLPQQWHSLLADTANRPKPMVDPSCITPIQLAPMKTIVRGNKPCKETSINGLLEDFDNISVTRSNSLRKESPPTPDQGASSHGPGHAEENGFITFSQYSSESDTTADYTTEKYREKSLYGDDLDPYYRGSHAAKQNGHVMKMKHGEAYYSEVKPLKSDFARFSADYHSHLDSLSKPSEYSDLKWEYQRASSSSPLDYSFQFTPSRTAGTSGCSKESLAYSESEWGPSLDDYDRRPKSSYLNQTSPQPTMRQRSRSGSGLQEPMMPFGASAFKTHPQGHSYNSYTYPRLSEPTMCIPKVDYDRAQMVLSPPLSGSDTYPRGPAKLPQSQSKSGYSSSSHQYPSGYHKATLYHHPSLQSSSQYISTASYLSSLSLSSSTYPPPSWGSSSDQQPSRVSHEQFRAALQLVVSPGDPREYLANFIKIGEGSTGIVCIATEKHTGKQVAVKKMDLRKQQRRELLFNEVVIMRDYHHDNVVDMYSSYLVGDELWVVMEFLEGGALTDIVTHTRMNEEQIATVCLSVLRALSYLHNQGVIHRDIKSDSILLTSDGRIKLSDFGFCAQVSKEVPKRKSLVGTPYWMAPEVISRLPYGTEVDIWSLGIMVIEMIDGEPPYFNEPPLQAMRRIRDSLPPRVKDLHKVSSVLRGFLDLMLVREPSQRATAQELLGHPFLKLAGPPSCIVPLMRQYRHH

[6] = tested on: panel of 442 kinases
[7] = target: T6, panel of 442 kinases (Homo sapiens, UniProt Q8TDX7); details: kinase NEK7; 1 µM; read-out: % of control at 1 µM
T6 construct: purchased Ambit Biosciences (scanMAXX KINOMEscan)
T6 sequence (Q8TDX7 whole entry): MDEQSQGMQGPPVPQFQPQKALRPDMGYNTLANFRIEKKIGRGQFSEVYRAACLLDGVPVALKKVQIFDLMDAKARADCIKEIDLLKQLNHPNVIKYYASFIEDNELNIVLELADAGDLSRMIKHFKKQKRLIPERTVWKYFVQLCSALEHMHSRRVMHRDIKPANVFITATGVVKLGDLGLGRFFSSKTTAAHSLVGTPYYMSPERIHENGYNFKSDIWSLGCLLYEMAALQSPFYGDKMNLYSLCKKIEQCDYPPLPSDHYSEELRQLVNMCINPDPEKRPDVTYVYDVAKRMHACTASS

[8] = target: T7, panel of 442 kinases (Homo sapiens, UniProt P53671); details: kinase LIMK2; 1 µM; read-out: % of control at 1 µM
T7 construct: purchased Ambit Biosciences (scanMAXX KINOMEscan)
T7 sequence (P53671 whole entry): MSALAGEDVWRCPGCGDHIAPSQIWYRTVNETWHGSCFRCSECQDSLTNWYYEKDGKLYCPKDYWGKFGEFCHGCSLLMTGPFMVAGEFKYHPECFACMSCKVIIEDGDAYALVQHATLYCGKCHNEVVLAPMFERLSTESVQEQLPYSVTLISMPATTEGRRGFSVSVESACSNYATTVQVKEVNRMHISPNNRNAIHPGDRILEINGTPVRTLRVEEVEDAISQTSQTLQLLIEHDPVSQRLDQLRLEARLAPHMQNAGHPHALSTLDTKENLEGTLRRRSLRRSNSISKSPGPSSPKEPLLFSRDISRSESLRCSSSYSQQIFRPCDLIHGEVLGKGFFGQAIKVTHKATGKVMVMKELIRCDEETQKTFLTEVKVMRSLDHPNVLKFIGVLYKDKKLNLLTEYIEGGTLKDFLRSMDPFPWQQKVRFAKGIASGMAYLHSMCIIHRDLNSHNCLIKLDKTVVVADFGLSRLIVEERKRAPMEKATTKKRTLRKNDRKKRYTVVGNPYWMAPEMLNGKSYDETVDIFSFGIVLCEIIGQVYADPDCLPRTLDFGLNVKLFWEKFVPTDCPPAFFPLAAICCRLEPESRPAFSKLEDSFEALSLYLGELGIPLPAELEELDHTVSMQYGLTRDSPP

[9] = target: T8, panel of 442 kinases (Homo sapiens, UniProt Q9BX84); details: kinase TRPM6; 1 µM; read-out: TRPM6 (% of control at 1 µM)
T8 construct: purchased Ambit Biosciences (scanMAXX KINOMEscan)

[10] = target: T9, panel of 442 kinases (Homo sapiens, UniProt Q86UX6); details: kinase YANK3; 1 µM; read-out: YANK3 (% of control at 1 µM)
T9 construct: purchased Ambit Biosciences (scanMAXX KINOMEscan)

[11] = target: T10, panel of 442 kinases (Homo sapiens, UniProt P00519, F317I); details: 1 µM, read-out: % of control at 1 µM
T10 construct: purchased Ambit Biosciences (scanMAXX KINOMEscan)
T10 sequence (P00519 whole entry F317I): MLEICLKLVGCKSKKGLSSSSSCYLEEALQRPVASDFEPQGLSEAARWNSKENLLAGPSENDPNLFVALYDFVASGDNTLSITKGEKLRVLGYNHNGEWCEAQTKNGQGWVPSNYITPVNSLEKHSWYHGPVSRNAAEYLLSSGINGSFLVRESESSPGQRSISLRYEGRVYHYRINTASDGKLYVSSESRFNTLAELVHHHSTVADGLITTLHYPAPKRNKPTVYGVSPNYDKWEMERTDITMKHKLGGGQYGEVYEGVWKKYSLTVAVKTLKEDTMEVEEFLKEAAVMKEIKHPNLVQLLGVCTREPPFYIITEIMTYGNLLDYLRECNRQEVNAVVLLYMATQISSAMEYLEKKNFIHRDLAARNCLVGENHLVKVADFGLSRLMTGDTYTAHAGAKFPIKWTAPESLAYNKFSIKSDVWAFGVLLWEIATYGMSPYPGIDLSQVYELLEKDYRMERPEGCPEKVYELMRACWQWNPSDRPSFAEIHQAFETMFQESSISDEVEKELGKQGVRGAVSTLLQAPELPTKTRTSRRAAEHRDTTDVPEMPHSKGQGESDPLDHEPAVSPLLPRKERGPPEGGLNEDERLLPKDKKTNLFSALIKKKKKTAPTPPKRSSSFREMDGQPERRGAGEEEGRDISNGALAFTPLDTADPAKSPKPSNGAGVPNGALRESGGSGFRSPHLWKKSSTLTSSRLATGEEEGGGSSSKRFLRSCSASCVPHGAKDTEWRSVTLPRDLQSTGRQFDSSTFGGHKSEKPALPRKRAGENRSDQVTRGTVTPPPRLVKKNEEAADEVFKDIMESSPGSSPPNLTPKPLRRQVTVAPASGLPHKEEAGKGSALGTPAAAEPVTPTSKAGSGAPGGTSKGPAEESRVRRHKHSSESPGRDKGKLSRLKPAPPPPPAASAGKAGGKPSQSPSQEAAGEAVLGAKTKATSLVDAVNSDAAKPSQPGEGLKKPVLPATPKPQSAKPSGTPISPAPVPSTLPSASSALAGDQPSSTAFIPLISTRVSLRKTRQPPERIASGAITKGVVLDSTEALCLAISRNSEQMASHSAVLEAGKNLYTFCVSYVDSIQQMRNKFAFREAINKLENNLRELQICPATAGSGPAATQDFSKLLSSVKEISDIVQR

[12] = target: T11, panel of 442 kinases (Homo sapiens, UniProt O14733); details: kinase MKK7; 1 µM; read-out: % of control at 1 µM
T11 construct: purchased Ambit Biosciences (scanMAXX KINOMEscan)
T11 sequence (O14733 1-419): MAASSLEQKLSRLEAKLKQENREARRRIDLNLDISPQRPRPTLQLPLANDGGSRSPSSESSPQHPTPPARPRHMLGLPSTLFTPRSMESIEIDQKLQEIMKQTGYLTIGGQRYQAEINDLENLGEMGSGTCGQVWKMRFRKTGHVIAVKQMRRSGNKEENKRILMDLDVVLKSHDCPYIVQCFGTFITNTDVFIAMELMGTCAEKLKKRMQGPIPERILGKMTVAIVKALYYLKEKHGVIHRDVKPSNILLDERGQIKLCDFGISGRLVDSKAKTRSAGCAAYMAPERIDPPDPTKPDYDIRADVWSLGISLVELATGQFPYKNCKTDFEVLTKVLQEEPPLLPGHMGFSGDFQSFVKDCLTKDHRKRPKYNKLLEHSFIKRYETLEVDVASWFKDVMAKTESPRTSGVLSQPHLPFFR

[13] = target: T12, panel of 442 kinases (Homo sapiens, UniProt O14965); details: AURKA; 1 µM; read-out: % of control at 1 µM
T12 construct: purchased Ambit Biosciences (scanMAXX KINOMEscan)
T12 sequence (O14965 1-403): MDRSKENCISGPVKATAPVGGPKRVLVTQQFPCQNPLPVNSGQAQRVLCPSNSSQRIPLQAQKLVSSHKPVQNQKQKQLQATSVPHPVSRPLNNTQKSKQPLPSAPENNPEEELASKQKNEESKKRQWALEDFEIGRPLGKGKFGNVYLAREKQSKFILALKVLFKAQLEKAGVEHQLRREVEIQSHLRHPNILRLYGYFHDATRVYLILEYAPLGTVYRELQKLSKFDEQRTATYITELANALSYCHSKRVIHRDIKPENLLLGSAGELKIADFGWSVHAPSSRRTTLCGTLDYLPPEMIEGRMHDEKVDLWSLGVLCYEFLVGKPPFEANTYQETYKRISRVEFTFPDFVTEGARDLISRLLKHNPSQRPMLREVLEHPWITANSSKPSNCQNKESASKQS

[14] = target: T13, panel of 442 kinases (Homo sapiens, UniProt P30530); details: AXL; 1 µM; read-out: % of control at 1 µM
T13 construct: purchased Ambit Biosciences (scanMAXX KINOMEscan)
T13 sequence (P30530 26-894): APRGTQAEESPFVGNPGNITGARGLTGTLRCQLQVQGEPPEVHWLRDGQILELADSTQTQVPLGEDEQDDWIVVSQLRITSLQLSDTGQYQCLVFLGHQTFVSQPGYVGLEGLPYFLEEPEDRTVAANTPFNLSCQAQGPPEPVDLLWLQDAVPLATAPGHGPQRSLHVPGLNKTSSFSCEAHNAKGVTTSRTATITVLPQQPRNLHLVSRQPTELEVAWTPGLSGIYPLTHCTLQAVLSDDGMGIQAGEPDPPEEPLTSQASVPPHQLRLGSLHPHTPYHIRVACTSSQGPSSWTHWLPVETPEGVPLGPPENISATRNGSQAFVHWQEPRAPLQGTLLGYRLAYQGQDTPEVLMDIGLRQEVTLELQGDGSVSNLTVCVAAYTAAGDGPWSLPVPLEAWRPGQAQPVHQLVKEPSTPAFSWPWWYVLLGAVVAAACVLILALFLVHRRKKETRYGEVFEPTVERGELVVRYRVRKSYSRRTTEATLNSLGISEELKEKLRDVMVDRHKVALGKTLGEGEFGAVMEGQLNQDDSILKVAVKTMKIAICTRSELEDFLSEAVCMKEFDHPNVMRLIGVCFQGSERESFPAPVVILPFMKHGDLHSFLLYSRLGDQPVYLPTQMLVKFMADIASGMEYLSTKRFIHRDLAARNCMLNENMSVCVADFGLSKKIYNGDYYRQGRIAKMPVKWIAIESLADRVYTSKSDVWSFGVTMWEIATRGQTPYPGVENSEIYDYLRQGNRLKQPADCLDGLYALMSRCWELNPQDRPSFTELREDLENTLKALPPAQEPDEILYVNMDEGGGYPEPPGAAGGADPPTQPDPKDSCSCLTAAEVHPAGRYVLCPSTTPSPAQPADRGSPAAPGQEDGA

[15] = EGFR(L747-E749del, A750P), 1 µM
[16] = EGFR(L747-S752del, P753S), 1 µM
[17] = kinase KIT(D816V), first of two lines so named (r206), 1 µM

Compound	remaining activity at 1 µM [1] [%]	remaining activity at 1 µM [2] [%]	remaining activity at 1 µM [3] [%]	remaining activity at 1 µM [4] [%]	remaining activity at 1 µM [5] [%]	% of control at 1 µM [6, 15]	% of control at 1 µM [6, 16]	% of control at 1 µM ([6]; EGFR(L747-T751del,Sins), 1 µM)	% of control at 1 µM ([6]; FLT3(ITD), 1 µM)	% of control at 1 µM [6, 17]	remaining activity at 1 µM [7] [%]	remaining activity at 1 µM [8] [%]	remaining activity at 1 µM [9] [%]	remaining activity at 1 µM [10] [%]	remaining activity at 1 µM ([11]; ABL1(F317I)-nonphosphorylated) [%]	remaining activity at 1 µM ([11]; ABL1(F317I)-phosphorylated) [%]	remaining activity at 1 µM [12] [%]	remaining activity at 1 µM [13] [%]	remaining activity at 1 µM [14] [%]	% of control at 1 µM ([6]; 1 μM)
COc1ncc(-c2ccc3nccc(-c4ccnnc4)c3c2)cc1NS(=O)(=O)c1ccc(F)cc1F [Omipalisib]	100	100	80	97	100	92 % of control	87 % of control	100 % of control	100 % of control	100 % of control	100	89	100	100	100	100	100	100	100	–
CS(=O)(=O)N1CCN(Cc2cc3nc(-c4cccc5[nH]ncc45)nc(N4CCOCC4)c3s2)CC1 [Pictilisib, 2-(1H-indazol-4-yl)-6-(4-methanesulfonyl-piperazin-1-ylmethyl)-4-morpholin-4-yl-t hieno[3,2-d]pyrimidine]	–	–	–	–	–	–	–	–	–	–	–	–	–	–	–	–	–	–	–	98 % of control and 70 % of control and 99 % of control and 77 % of control and 72 % of control
FC(F)c1nc2ccccc2n1-c1nc(N2CCOCC2)nc(N2CCOCC2)n1 [ZSTK474, 2-(difluoromethyl)-1-[4,6-di(4-morpholinyl)-1,3,5-triazin-2-yl]-1H-benzimidazole]	93	57	99	62	100	89 % of control	100 % of control	100 % of control	99 % of control	100 % of control	68	100	74	73	100	88	100	100	93	–
